For one molecule, Activity, inhibition and IC50 results are on record in ChEMBL document CHEMBL5705899 (Biochem J, 2014).

pIC50: −log10 of the molar value. Activity calls are given as the source filed them. No cut-off for these calls is given here.

Assay [1] addresses Protein kinase C alpha type (Homo sapiens) (UniProt P17252). The assay can be described thus: Inhibition of recombinant human N-terminal His6-tagged PKCalpha (1 to 672 residues) expressed in baculovirus infected Sf21 cells assessed as remaining activity at 1 uM using Histone H1 as substrate incubated for 30 mins in presence of [gamma-33P]ATP by filter binding method relative to control.

Assay [2] deals with Mitogen-activated protein kinase kinase kinase kinase 3 (Homo sapiens) (UniProt Q8IVH8). The assay can be described thus: Inhibition of recombinant human MAP4K3 (1 to 873 residues) expressed in baculovirus infected Sf21 cells assessed as remaining activity at 1 uM using MBP as substrate incubated for 30 mins in presence of [gamma-33P]ATP by filter binding method relative to control.

In assay [3] the target is Serine/threonine-protein kinase D1 (Homo sapiens) (UniProt Q15139). Put plainly: Inhibition of recombinant human N-terminal His6-tagged PKD1 (2 to 912 residues) expressed in baculovirus infected Sf21 cells assessed as remaining activity at 1 uM using KKLNRTLSVA as substrate incubated for 30 mins in presence of [gamma-33P]ATP by filter binding method relative to control.

The target of assay [4] is Dual specificity mitogen-activated protein kinase kinase 2 (Homo sapiens) (UniProt P36507). Put plainly: Inhibition of recombinant human N-terminal GST/C-terminal His6-tagged MKK2 (2 to 400 residues) expressed in Escherichia coli assessed as remaining activity at 1 uM using MBP as substrate incubated for 30 mins in presence of [gamma-33P]ATP by filter binding method relative to control.

For assay [5], the target named is MAP kinase-interacting serine/threonine-protein kinase 2 (Homo sapiens) (UniProt Q9HBH9). Put plainly: Inhibition of recombinant human N-terminal GST/C-terminal His6-tagged MNK2alpha (2 to 465 residues) expressed in Escherichia coli assessed as remaining activity at 1 uM using eIF4E as substrate incubated for 30 mins in presence of [gamma-33P]ATP by filter binding method relative to control.

Assay [6] deals with AMPK alpha1/beta2/gamma1 (Homo sapiens) (UniProt O43741+P54619+Q13131). Put plainly: Inhibition of recombinant N-terminal His6-tagged human AMPKalpha1 (11 to 559 residues)/AMPKbeta2 (1 to 272 residues)/AMPKgamma1 (1 to 331 residues) expressed in baculovirus infected Sf21 cells assessed as remaining activity at 1 uM using SAMS as substrate incubated for 30 mins in presence of [gamma-33P]ATP relative to control.

For assay [7], the target named is Serine/threonine-protein kinase PAK 5 (Homo sapiens) (UniProt Q9P286). The assay can be described thus: Inhibition of recombinant human N-terminal GST-tagged PAK5 (2 to 719 residues) expressed in Escherichia coli assessed as remaining activity at 1 uM using RRRLSFAEPG as substrate incubated for 30 mins in presence of [gamma-33P]ATP by filter binding method relative to control.

Assay [8] deals with Dual specificity testis-specific protein kinase 1 (Homo sapiens) (UniProt Q15569). The assay can be described thus: Inhibition of recombinant human N-terminal GST-tagged TESK1 (1 to 315 residues) expressed in Escherichia coli assessed as remaining activity at 1 uM using Cofilin 2 as substrate incubated for 30 mins in presence of [gamma-33P]ATP by filter binding method relative to control.

The target in assay [9] is Tyrosine-protein kinase Blk (Homo sapiens) (UniProt P51451). The assay can be described thus: Inhibition of human BLK at 1 uM using polyEY as substrate in presence of 33P-ATP by ProQinase assay.
Assay [10] deals with Cytoplasmic tyrosine-protein kinase BMX (Homo sapiens) (UniProt P51813). The assay can be described thus: Inhibition of human BMX at 1 uM using polyEy as substrate in presence of 33P-ATP by ProQinase assay.
Assay [11] deals with Insulin receptor (Homo sapiens) (UniProt P06213). The assay can be described thus: Inhibition of human INSR at 1 uM using poly(Ala,Glu,Lys,Tyr) as substrate in presence of 33P-ATP by ProQinase assay.
Assay [12] concerns the target Tyrosine-protein kinase Fgr (Homo sapiens) (UniProt P09769). The assay can be described thus: Inhibition of human FGR at 1 uM using polyEY as substrate in presence of 33P-ATP by ProQinase assay.
Assay [13] has as its target Tyrosine-protein kinase HCK (Homo sapiens) (UniProt P08631). Put plainly: Inhibition of human HCK at 1 uM using polyEY as substrate in presence of 33P-ATP by ProQinase assay.
For assay [14], the target named is Tyrosine-protein kinase SYK (Homo sapiens) (UniProt P43405). Put plainly: Inhibition of human SYK (1 to 635 residues) at 1 uM using polyEY as substrate in presence of 33P-ATP by ProQinase assay.
For assay [15], the target named is Tyrosine-protein kinase receptor TYRO3 (Homo sapiens) (UniProt Q06418). The assay can be described thus: Inhibition of human TYRO3 at 1 uM using PolyEY as substrate in presence of 33P-ATP by ProQinase assay.
The target in assay [16] is NUAK family SNF1-like kinase 2 (Homo sapiens) (UniProt Q9H093). Put plainly: Inhibition of human SNARK at 1 uM using histone H2B as substrate in presence of 33P-ATP by ProQinase assay.
For assay [17], the target named is CDK8/Cyclin C (Homo sapiens) (UniProt P49336+P24863). Put plainly: Inhibition of human CDK8/CyclinC at 1 uM using RBER-CHKtide as substrate in presence of 33P-ATP by ProQinase assay. The class given is protein-complex assay.
For assay [18], the target named is cAMP-dependent protein kinase catalytic subunit PRKX (Homo sapiens) (UniProt P51817). The assay can be described thus: Inhibition of human PRKX at 1 uM using RBER-GSK3 as substrate in presence of 33P-ATP by ProQinase assay.
Assay [19] concerns the target Glycogen synthase kinase-3 alpha (Homo sapiens) (UniProt P49840). Put plainly: Inhibition of human GSK3alpha at 1 uM using SUPT5 754-837 as substrate in presence of 33P-ATP by ProQinase assay.
The target of assay [20] is Sphingosine kinase 1 (Homo sapiens) (UniProt Q9NYA1). The assay can be described thus: Inhibition of recombinant human N-terminal His6-tagged SPHK1 (1 to 384 residues) expressed in baculovirus expression system at 1 uM using sphingosine as substrate incubated for 40 mins by ADP-Glo assay.
In assay [21] the target is Phosphatidylinositol 5-phosphate 4-kinase type-2 alpha (Homo sapiens) (UniProt P48426). Put plainly: Inhibition of recombinant human N-terminal His6-tagged PIP5K2alpha (1 to 406 residues) expressed in Escherichia coli at 1 uM using diC8 PI(5)P as substrate incubated for 40 mins by ADP-Glo assay. In general terms: ADP-Glo first removes unused ATP, then detects ADP through luciferase.

Assay [22] has as its target Phosphatidylinositol 4,5-bisphosphate 3-kinase catalytic subunit gamma isoform (Homo sapiens, UniProt P48736). Put plainly: Inhibition of PI3Kgamma (unknown origin) using PtdIns(4,5)P2 as substrate preincubated for 20 mins followed by substrate addition and measured after 80 mins by Kinase-Glo assay.
Assay [23] addresses Phosphatidylinositol 4-phosphate 5-kinase type-1 alpha (Homo sapiens, UniProt Q99755). The assay can be described thus: Inhibition of human PIP5K1A using PI/PS as substrate by ADP-Glo assay.

Sequence of NUAK family SNF1-like kinase 2 (Homo sapiens) (Q9H093 whole entry): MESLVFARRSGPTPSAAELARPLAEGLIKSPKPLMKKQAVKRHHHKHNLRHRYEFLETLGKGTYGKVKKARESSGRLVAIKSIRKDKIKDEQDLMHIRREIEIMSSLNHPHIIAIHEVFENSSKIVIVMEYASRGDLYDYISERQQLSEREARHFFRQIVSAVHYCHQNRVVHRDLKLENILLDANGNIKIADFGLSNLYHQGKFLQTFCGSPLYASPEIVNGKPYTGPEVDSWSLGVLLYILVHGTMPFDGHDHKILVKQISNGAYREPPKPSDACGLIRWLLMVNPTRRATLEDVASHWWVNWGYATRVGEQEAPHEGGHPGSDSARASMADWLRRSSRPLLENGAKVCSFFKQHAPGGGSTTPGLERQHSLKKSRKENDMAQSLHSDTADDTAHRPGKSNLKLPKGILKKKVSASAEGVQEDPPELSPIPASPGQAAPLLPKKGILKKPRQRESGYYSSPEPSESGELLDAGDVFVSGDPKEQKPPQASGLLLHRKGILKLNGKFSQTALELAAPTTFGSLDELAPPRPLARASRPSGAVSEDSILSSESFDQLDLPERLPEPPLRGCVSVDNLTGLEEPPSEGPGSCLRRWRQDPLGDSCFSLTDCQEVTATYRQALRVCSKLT
Sequence of Cytoplasmic tyrosine-protein kinase BMX (Homo sapiens) (P51813 whole entry): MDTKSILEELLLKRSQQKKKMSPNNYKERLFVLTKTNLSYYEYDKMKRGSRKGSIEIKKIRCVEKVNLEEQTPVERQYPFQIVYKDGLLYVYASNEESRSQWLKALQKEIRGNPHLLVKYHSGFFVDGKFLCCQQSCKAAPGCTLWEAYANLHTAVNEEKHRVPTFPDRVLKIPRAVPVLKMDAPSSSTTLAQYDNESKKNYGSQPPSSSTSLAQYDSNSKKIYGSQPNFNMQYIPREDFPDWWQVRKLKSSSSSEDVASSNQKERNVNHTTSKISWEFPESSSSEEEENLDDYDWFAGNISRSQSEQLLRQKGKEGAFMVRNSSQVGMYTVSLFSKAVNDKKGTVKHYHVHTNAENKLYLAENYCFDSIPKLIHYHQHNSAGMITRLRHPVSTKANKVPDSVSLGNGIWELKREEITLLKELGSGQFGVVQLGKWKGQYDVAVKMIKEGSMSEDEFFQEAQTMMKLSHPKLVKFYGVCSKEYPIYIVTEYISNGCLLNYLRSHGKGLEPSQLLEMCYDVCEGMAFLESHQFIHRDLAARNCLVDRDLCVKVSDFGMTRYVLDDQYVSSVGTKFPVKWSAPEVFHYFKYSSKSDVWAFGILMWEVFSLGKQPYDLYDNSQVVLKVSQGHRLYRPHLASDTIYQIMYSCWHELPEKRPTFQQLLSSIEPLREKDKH
Sequence of Phosphatidylinositol 4-phosphate 5-kinase type-1 alpha (Q99755 whole entry): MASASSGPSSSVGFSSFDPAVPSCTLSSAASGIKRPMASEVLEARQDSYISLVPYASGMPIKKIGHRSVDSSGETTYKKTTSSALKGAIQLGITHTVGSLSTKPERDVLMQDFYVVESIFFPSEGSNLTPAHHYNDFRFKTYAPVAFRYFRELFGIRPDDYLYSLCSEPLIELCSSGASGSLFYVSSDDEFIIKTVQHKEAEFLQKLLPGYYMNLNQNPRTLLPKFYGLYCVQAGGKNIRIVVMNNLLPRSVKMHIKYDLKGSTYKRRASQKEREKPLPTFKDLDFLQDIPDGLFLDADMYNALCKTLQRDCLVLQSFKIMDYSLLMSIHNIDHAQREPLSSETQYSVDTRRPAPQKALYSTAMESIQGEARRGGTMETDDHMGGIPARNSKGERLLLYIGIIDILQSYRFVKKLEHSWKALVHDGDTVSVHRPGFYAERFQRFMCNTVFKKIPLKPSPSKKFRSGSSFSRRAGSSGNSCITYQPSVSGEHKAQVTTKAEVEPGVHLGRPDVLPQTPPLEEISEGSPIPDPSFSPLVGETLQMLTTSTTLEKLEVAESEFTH
Sequence of Glycogen synthase kinase-3 alpha (Homo sapiens) (P49840 2-483 limits assumed): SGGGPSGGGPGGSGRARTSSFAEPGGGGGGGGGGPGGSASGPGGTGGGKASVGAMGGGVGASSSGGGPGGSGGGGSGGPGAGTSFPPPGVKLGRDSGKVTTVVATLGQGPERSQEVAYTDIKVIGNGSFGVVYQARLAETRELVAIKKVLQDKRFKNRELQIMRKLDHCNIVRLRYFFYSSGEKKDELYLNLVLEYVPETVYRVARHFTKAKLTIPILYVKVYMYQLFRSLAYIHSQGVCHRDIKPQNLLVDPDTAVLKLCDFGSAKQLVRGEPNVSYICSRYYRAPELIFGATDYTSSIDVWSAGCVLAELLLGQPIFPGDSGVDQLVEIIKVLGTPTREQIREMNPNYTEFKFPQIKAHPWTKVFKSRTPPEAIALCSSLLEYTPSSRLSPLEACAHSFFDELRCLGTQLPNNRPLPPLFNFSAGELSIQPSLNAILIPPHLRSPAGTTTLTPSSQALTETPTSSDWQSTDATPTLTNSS
Sequence of Tyrosine-protein kinase receptor TYRO3 (Homo sapiens) (Q06418 whole entry): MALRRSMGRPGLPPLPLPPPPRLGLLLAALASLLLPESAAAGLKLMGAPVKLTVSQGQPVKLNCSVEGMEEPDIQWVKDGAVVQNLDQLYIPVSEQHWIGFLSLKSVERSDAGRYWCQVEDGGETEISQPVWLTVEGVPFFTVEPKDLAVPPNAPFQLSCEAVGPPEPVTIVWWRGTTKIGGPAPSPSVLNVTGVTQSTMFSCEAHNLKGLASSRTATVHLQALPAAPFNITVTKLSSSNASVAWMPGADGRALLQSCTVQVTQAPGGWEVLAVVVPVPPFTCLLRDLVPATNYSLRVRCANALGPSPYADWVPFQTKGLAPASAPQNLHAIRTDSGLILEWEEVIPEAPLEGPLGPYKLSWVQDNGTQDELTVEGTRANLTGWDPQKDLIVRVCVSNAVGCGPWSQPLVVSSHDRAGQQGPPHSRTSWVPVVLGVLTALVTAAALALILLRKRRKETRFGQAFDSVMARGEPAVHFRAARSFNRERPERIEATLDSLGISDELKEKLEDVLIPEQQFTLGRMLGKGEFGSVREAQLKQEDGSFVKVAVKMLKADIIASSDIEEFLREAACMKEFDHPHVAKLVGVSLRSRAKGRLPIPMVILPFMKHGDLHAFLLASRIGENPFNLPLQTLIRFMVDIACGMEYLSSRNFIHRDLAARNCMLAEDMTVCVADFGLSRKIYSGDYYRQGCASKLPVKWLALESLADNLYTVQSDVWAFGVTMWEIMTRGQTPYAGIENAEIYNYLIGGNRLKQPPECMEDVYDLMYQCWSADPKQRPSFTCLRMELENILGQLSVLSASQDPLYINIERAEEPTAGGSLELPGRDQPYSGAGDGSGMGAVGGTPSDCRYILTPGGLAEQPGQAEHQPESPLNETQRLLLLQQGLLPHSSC
Sequence of Serine/threonine-protein kinase D1 (Homo sapiens) (Q15139 whole entry, the tested form may be a part): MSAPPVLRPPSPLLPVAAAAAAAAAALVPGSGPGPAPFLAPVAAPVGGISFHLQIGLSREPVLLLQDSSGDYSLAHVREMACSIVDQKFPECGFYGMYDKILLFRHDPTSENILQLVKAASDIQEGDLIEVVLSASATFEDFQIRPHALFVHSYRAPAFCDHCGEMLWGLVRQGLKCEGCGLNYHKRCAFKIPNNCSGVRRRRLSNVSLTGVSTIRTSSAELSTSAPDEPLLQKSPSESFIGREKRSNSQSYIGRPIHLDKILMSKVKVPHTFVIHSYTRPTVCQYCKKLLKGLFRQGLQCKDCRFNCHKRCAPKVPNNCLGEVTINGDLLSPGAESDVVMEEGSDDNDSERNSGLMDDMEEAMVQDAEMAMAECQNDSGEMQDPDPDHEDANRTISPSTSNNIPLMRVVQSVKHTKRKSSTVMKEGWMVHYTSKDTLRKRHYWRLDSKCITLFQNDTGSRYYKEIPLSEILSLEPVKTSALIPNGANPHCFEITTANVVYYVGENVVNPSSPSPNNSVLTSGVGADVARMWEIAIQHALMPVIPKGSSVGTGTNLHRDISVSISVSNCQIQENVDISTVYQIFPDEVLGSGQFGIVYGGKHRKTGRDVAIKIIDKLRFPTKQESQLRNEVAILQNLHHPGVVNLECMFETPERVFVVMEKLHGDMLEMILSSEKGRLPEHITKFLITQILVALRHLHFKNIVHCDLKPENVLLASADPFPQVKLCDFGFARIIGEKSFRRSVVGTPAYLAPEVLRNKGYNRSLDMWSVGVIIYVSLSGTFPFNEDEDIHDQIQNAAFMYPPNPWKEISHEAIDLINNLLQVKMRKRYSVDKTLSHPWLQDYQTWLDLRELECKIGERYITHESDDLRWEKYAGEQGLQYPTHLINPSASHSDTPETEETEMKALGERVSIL

As for `CC(C)(O)CNc1ncc(-c2ccnc(Nc3ccnc(Cl)c3)n2)c(CC2CC2)n1`, the Activity in assay [1] was found to be 119%; in assay [2], 117%; in [3], 115%; in assay [4] it was 111%; in assay [5], 100%; in assay [6] it was 96%. Further, the values for the Activity in assay [7] and in assay [8] were 96% and 95%, respectively. The inhibition result in assay [9], in assay [10], in assay [11], in assay [12], in [13] and in assay [14] was “inactive” each time. Further, the inhibition result in [15], in assay [16], in assay [17], in assay [18], in assay [19] and in [20] was “inactive” in each case. Also, the inhibition result in assay [21] is “inactive”. Also, the pIC50 – broadly, −log10 of the IC50, conventionally taken in molar units – in [22] was 5.57; in assay [23], 5.31.
